Patent publication US10654896B2, “FoxP3-binding peptides and uses thereof” (FUNDACIÓN PARA LA INVESTIGACIÓN MÉDICA APLICADA, priority 2016, dated 2020)
Where a SMILES comes first, the peptide text is derived from it. [ ]: non-standard residue; d: D form.

Tests used:
[1] = biological target: T1, human FOXP3 (FOXP3-6His) (Homo sapiens, UniProt Q9BZS1); assay: Peptide binding to FOXP3 by surface plasmon resonance (SPR); conditions: peptides 1-20 μM; ratio to p60 (SEQ ID NO: 1)
T1 construct: 6xHis (C); made in house; host or cells: E. coli BL21 (DE3)
T1 sequence (Q9BZS1 1-431): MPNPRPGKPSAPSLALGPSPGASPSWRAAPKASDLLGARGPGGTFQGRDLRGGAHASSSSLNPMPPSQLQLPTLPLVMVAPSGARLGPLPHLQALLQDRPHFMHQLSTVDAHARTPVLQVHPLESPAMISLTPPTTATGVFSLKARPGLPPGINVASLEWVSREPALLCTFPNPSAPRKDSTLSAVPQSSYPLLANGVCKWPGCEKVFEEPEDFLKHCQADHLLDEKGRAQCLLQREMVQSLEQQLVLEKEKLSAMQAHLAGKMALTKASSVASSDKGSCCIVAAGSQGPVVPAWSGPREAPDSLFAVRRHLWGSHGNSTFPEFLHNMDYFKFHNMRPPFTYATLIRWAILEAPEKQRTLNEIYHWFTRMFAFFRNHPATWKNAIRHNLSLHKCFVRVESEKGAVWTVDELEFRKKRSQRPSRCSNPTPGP
Summary of the method: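 C-terminally 6His-tagged human FOXP3, expressed in E. coli BL21(DE3) and Ni-affinity purified, was amine-coupled to a GLM chip (ProteOn XPR36). Peptides at 1–20 μM injected in triplicate in PBS, 0.005% Tween 20, pH 7.4, at 30 μl/min, with interspot reference. Binding given as ratio to reference peptide p60.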

[2] = biological target: T2, FOXP3/Runx1 heterodimerization (Homo sapiens, UniProt Q9BZS1); assay: FOXP3/Runx1 heterodimerization inhibition (Alphascreen); assay type: biochemical; conditions: for inhibition at 2.5 µM: read-out: Foxp3-Runx1 Inhibition % inhibition (2.5 μM)
T2 construct: made in house; host or cells: E. coli BL21 (DE3)
T2 sequence (Q9BZS1 1-431): T1 sequence (Q9BZS1 1-431)
Text: Plasmid pET20b FOXP3-His was generated to produce the human FOXP3 tagged with 6 histidines at the C terminus of the protein. Briefly, plasmid pDEST15-FOXP3 (provided by Dr. Casal, Madrid, Spain) was used as template to amplify FOXP3 by PCR using the primers Upper FOXP3 Ndel catatgcccaaccccaggc (SEQ ID NO: 55) and Lower FOXP3 […] (SEQ ID NO: 56). The resulting fragment was subcloned in pET20b at Ndel and NotI sites. pET45b His-Runx1 was obtained by PCR of activated human CD4 T cells obtained from healthy volunteers (after the signature of an informed consent) using the primers Upper Runx1 atgcgtatccccgtagatg (SEQ ID NO: 57) and Lower Runx1 […] (SEQ ID NO: 58) and the fragment was cloned in pcDNA3.1. Then, pET45b and pcDNA3.1-Runx1 were digested with BamHI and NotI and ligated to obtain pET45b-Runx1. Plasmids were used to transform BL21 cells (DE3; Novagen, Schwalbach, Germany) for the expression of the recombinant protein. The transformed BL21 cells were grown in LB medium at 37° C. (1 liter of final culture medium) (with ampicilin 0.1 mg/ml). Once the OD of the culture was between 0.5 and 1.0, IPTG (0.4 mM, final concentration) was added. Bacteria were then cultured overnight in agitation and centrifuged for 10 min at 8000 rpm. Cell pellet was then resuspended in 4 ml Tris-HCl 0.1 M and frozen at −80° C. Cell pellet was then thawed and incubated with lisozyme (25 KU) and a protease inhibitor cocktail for 15 min at 30° C. before cell lysis induced with a French-press. The resultant pool was then centrifuged during 20 min at 11.000 rpm). The recombinant protein was purified from the soluble fraction of French-press cell extracts by affinity chromatography (Histrap, Pharmacia) following manufacturer's instructions and using an FPLC platform (AKTA, Pharmacia). Plasmid pDEST15-FOXP3 encoding the fusion protein GST-FOXP3 (GST fused to the isoform A from human FOXP3 gene), was transformed into BL21 cells for the expression of the recombinant protein. GST-FOXP3 protein was purified from the soluble fraction of cell extracts obtained, as described above, by affinity chromatography (GSTrap; Amersham, Piscataway, N.J.) using a fast protein liquid chromatography platform (AKTA; Amersham) following manufacturer's instructions. The eluted proteins were desalted using Hitrap desalting columns (Pharmacia) and analyzed by SDS-PAGE using Coomassie blue (Bio-Safe Coomassie reagent; Bio-Rad, Hercules, Calif.) and by Western blot.
It has been described that dimerization of FOXP3 is required for its function as a transcriptional regulator. Moreover, interaction between FOXP3 and the transcription factor Runx1, is crucially required for normal hematopoiesis including thymic T-cell development, but also for Treg suppressor activity (Reviewed in Lozano et al, Front Oncol. 2013, 3:294). Both activities are mediated by the intermediate region of Foxp3, which is the area of interaction between P60 and Foxp3. Thus, we studied the effect of P60 and their mutants on the FOXP3/Runx1 heterodimerization, as well as FOXP3/FOXP3 homodimerization by Alphascreen technology according to the manufacturer's instructions (Perkin Elmer, Benelux). AlphaScreen™ is a bead-based technology that is designed to measure the proximity of donor and acceptor beads conjugated to biomolecules of interest.
To measure Foxp3-Runx1 interactions, Foxp3-GST and […] proteins were used.
Recombinant Runx1 expressed in E. Coli with a hexa-histidine tag (obtained as disclosed in section (1) above) was captured by nickel chelate acceptor beads following manufacturer's instructions, whereas the recombinant FOXP3 expressed with a GST tag was captured by glutathione donor beads (Perkin Elmer) following manufacturer's instructions. His-tagged Runx1 (46 nM final concentration) was incubated with 100 nM GST-FOXP3 and the peptides to be tested (added at different concentrations from 1 to 100 μM) for 1 h at room temperature. […]

CSCC[C@H](NC(=O)[C@H](C)NC(=O)[C@H](Cc1ccccc1)NC(=O)[C@H](Cc1ccccc1)NC(=O)[C@@H]1CCCN1C(=O)[C@H](Cc1c[nH]c2ccccc12)NC(=O)[C@H](CCSC)NC(=O)[C@H](CCCCN)NC(=O)[C@H](CCCNC(=N)N)NC(=O)[C@H](Cc1ccccc1)NC(=O)[C@H](CO)NC(=O)[C@H](CCC(N)=O)NC(=O)[C@H](Cc1ccccc1)NC(=O)[C@@H](CC(=O)O)NC(=O)[C@@H](N)CCCNC(=N)N)C(=O)O [compound 3] (H-R[dD]FQSFRKMWPFFAM-OH)
Binding to Foxp3 Ratio binding Peptide/p60 (fold change) [1]: 2.8 fold change

CSCC[C@H](NC(=O)[C@H](C)NC(=O)[C@H](Cc1ccccc1)NC(=O)[C@H](Cc1ccccc1)NC(=O)[C@@H]1CCCN1C(=O)[C@H](Cc1c[nH]c2ccccc12)NC(=O)[C@H](CCSC)NC(=O)[C@H](CCCCN)NC(=O)[C@H](CCCNC(=N)N)NC(=O)[C@H](Cc1ccccc1)NC(=O)[C@H](CO)NC(=O)[C@H](CCC(N)=O)NC(=O)[C@H](Cc1ccccc1)NC(=O)[C@H](C)NC(=O)[C@H](N)CCCNC(=N)N)C(=O)O [compound 46] (H-[dR]AFQSFRKMWPFFAM-OH; N-terminus and C-terminus assumed)
inhibition at 2.5 µM [2]: 95% | Binding to Foxp3 Ratio binding Peptide/p60 (fold change) [1]: 2.7 fold change

CSCC[C@H](NC(=O)[C@H](CCCCN)NC(=O)[C@H](CCCNC(=N)N)NC(=O)[C@H](Cc1ccccc1)NC(=O)[C@H](CO)NC(=O)[C@H](CCC(N)=O)NC(=O)[C@H](Cc1ccccc1)NC(=O)[C@H](C)NC(=O)[C@@H](N)CCCNC(=N)N)C(=O)N[C@@H](Cc1c[nH]c2ccccc12)C(=O)N1CCC[C@H]1C(=O)N[C@@H](Cc1ccccc1)C(=O)N[C@@H](Cc1ccccc1)C(=O)N[C@@H](C)C(=O)N[C@H](CCSC)C(=O)O [compound 47] (H-RAFQSFRKMWPFFA[dM]-OH; N-terminus and C-terminus assumed)
inhibition at 2.5 µM [2]: 75% | Binding to Foxp3 Ratio binding Peptide/p60 (fold change) [1]: 1.7 fold change

CSCC[C@H](NC(=O)[C@H](CCCCN)NC(=O)[C@H](CCCNC(=N)N)NC(=O)[C@H](Cc1ccccc1)NC(=O)[C@H](CO)NC(=O)[C@H](CCC(N)=O)NC(=O)[C@H](Cc1ccccc1)NC(=O)[C@H](C)NC(=O)[C@H](N)CCCNC(=N)N)C(=O)N[C@@H](Cc1c[nH]c2ccccc12)C(=O)N1CCC[C@H]1C(=O)N[C@@H](Cc1ccccc1)C(=O)N[C@@H](Cc1ccccc1)C(=O)N[C@@H](C)C(=O)N[C@H](CCSC)C(=O)O [compound 48] (H-[dR]AFQSFRKMWPFFA[dM]-OH; N-terminus and C-terminus assumed)
inhibition at 2.5 µM [2]: 70% | Binding to Foxp3 Ratio binding Peptide/p60 (fold change) [1]: 2.5 fold change

CSCC[C@@H]1NC(=O)[C@H](C)NC(=O)[C@H](Cc2ccccc2)NC(=O)[C@H](Cc2ccccc2)NC(=O)[C@@H]2CCCN2C(=O)[C@H](Cc2c[nH]c3ccccc23)NC(=O)[C@H](CCSC)NC(=O)[C@H](CCCCN)NC(=O)[C@H](CCCNC(=N)N)NC(=O)[C@H](Cc2ccccc2)NC(=O)[C@H](C)NC(=O)[C@H](CCC(N)=O)NC(=O)[C@H](Cc2ccccc2)NC(=O)[C@H](C)NC(=O)[C@H](CCCNC(=N)N)NC1=O [compound 50] (cyclo(RAFQAFRKMWPFFAM))
inhibition at 2.5 µM [2]: 60%

H-RDFQSFRKMWPFFAM-OH [compound 1]
inhibition at 100 µM ([2]; read-out: Foxp3-Runx1 Inhibition % inhibition (100 μM)): 54.5% | Binding to Foxp3 Ratio binding Peptide/p60 (fold change) [1]: 1.0 fold change
